# According to patent US4035481A, “Antibiotic A-28086 and process for production thereof” (Eli Lilly and Company, priority 1976, dated 1977):
# Key:
# [1] = test system: rumen flora; assay: In vitro rumen fluid incubation, volatile fatty acid production; parameters: species or system steer; details: 1 ppm in rumen fluid, 16 hours at 38° C
# Text: As discussed hereinabove, efficiency of carbohydrate utilization in ruminants is increased by treatments which stimulate the animal's rumen flora to produce propionate compounds rather than acetate or butyrate compounds. The efficiency of feed use can be monitored by observing the production and concentration of propionate compounds in the rumen, using the following methods:
# Rumen fluid is obtained from a steer with a surgically-installed fistula opening into the rumen. The steer is maintained on a high-grain ration. A sample of rumen fluid is strained through four layers of cheesecloth, and the filtrate is collected. The particulate matter retained by the cheesecloth is resuspended in enough physiological buffer to return it to the original volume of the rumen fluid, and this suspension is strained again. The buffer used has the following composition:
# The two filtrates are combined and allowed to stand until particulate matter separates to the top. The clear layer is separated, diluted with the same buffer (1:1) and then adjusted to between pH 6.8 to 7.0.
# The diluted rumen fluid (10 ml) is placed in a 25-ml flask with 40 mg of the above-described feed, an additional 1 mg of soybean protein, and the compound to be tested. Four replicate flasks are used per treatment. Two sets of four control flasks each are also employed. A zero-time control and an incubated 16-hour control are used. All test flasks are incubated for 16 hours at 38° C. […] The samples are allowed to settle, and the supernatants are analyzed by gas chromatography for propionate, acetate, and butyrate compounds.
# [2] = Electrometric titration (pKa of titratable group); details: 80% aqueous dimethylformamide
# [3] = test system: Staphylococcus aureus; assay: Disc-diffusion zone of inhibition, Staphylococcus aureus; format: cell-based; details: 6 mm pads, 1 mg/ml
# [4] = test system: Transmissible Gastro-enteritis virus; format: cell-based; details: tissue-culture test
# [5] = test system: Bacillus subtilis ATCC6633; assay: Disc-diffusion zone of inhibition, Bacillus subtilis ATCC6633; format: cell-based; details: 6 mm pads, 1 mg/ml
# [6] = Solubility in organic solvents and water; format: physicochemical
# [7] = test system: M. hypopneumoniae; assay: In vitro broth-dilution MIC, Mycoplasma; format: cell-based, Mycoplasma hypopneumoniae
# Text: (§1) Activity against Mycoplasma is another useful aspect of the antimicrobial activity of the A-28086 compounds. Mycoplasma species, also known as pleuropneumonia-like (PPLO) organisms, are pathogenic to man and various animals. Agents active against PPLO organisms are especially needed by the poultry industry. The minimal inhibitory concentrations (MIC) of antibiotic A-28086 factor A against various Mycoplasma species, as determined by in vitro broth-dilution studies, are summarized in Table VII below: […]
# [8] = test system: Candida tropicalis; assay: Disc-diffusion zone of inhibition, Candida tropicalis; format: cell-based; details: 6 mm pads, 1 mg/ml
# [9] = test system: sheep; assay: Feed-utilization efficiency in sheep; format: in vivo; details: 56 days
# [10] = Acute toxicity in mice, intraperitoneal; details: mouse, in vivo, ip
# [11] = test system: Fusarium moniliforme; assay: Disc-diffusion zone of inhibition, Fusarium moniliforme; format: cell-based; details: Fusarium verticillioides; 6 mm pads, 1 mg/ml
# [12] = test system: M. hyorhinis; assay: In vitro broth-dilution MIC, Mycoplasma; format: cell-based; details: Mesomycoplasma hyorhinis
# Text: as §1
# [13] = test system: M. synoviae; assay: In vitro broth-dilution MIC, Mycoplasma; format: cell-based; details: Mycoplasmopsis synoviae
# Text: as §1
# [14] = test system: M. gallisepticum; assay: In vitro broth-dilution MIC, Mycoplasma; format: cell-based; details: Mycoplasmoides gallisepticum
# Text: as §1
# [15] = test system: Saccharomyces pastorianum ATCC2366; assay: Disc-diffusion zone of inhibition, Saccharomyces pastorianum ATCC2366; format: cell-based
# [16] = test system: Mycobacterium avium ATCC7992; assay: Disc-diffusion zone of inhibition, Mycobacterium avium ATCC7992; format: cell-based; details: 6 mm pads, 1 mg/ml
# [17] = test system: Sarcina lutea ATCC9341; assay: Disc-diffusion zone of inhibition, Sarcina lutea ATCC9341; format: cell-based; details: Micrococcus luteus, 6 mm pads, 1 mg/ml
# [18] = test system: M. hyosynoviae; assay: In vitro broth-dilution MIC, Mycoplasma; format: cell-based, Mycoplasma hyosynoviae
# Text: as §1
# [19] = test system: Clostridium perfringens; assay: microbe, parasite or virus in culture; format: cell-based; details: 24 h
# [20] = test system: Clostridium septicum; assay: Agar-dilution MIC, anaerobic bacteria; format: cell-based; details: 24-hour incubation
# Experimental: (§2) The minimal inhibitory concentrations (MIC) at which A-28086 factor A inhibits various anaerobic bacteria, determined by standard agar-dilution assay, are summarized in Table VI. Endpoints were read after 24-hour incubation.
# [21] = test system: Bacteroides fragilis ssp. vulgatis No. 1563; assay: Agar-dilution MIC, anaerobic bacteria; format: cell-based; details: 24-hour incubation
# Experimental: as §2
# [22] = test system: Propionibacterium acnes 44; assay: Agar-dilution MIC, anaerobic bacteria; format: cell-based; details: Cutibacterium acnes, 24-hour incubation
# Experimental: as §2
# [23] = test system: Propionibacterium acnes 79; assay: Agar-dilution MIC, anaerobic bacteria; format: cell-based; details: Cutibacterium acnes, 24-hour incubation
# Experimental: as §2
# [24] = test system: Fusobacterium symbiosum; assay: Agar-dilution MIC, anaerobic bacteria; format: cell-based; details: 24-hour incubation
# Experimental: as §2
# [25] = test system: Clostridium inocuum; assay: Agar-dilution MIC, anaerobic bacteria; format: cell-based; details: 24-hour incubation
# Experimental: as §2
# [26] = test system: Fusobacterium necrophorum; assay: Agar-dilution MIC, anaerobic bacteria; format: cell-based; details: 24-hour incubation
# Experimental: as §2
# [27] = test system: Bacteroides fragilis ssp. fragilis; assay: Agar-dilution MIC, anaerobic bacteria; format: cell-based; details: 24-hour incubation
# Experimental: as §2
# [28] = test system: Bacteroides fragilis ssp. thetaiotacmicron; assay: Agar-dilution MIC, anaerobic bacteria; format: cell-based; details: 24 h
# Experimental: as §2
# [29] = test system: Bacteroides fragilis ssp. vulgatis 1211; assay: Agar-dilution MIC, anaerobic bacteria; format: cell-based; details: 24-hour incubation
# Experimental: as §2
# [30] = test system: Peptostreptococcus intermedius; assay: Agar-dilution MIC, anaerobic bacteria; format: cell-based; details: 24-hour incubation
# Experimental: as §2
# [31] = test system: Clostridium septicum bovine; assay: Agar-dilution MIC, anaerobic bacteria; format: cell-based; details: 24-hour incubation
# Experimental: as §2
# [32] = test system: Peptococcus anaerobius; assay: Agar-dilution MIC, anaerobic bacteria; format: cell-based; details: 24-hour incubation
# Experimental: as §2
# [33] = test system: Eubacterium aerofaciens; assay: Agar-dilution MIC, anaerobic bacteria; format: cell-based; details: Collinsella aerofaciens, 24-hour incubation
# Experimental: as §2
# [34] = test system: Actinomyces bovis; assay: Agar-dilution MIC, anaerobic bacteria; format: cell-based; details: 24-hour incubation
# Experimental: as §2
# [35] = test system: Veillonella alcalescens; assay: Agar-dilution MIC, anaerobic bacteria; format: cell-based; details: Veillonella parvula, 24-hour incubation
# Experimental: as §2
# [36] = test system: Clostridium ramosum; assay: Agar-dilution MIC, anaerobic bacteria; format: cell-based; details: Thomasclavelia ramosa, 24-hour incubation
# Experimental: as §2
# [37] = test system: Eimeria brunetti; assay: Anticoccidial activity in chicks challenged with Eimeria brunetti (Table IX); format: in vivo, broiler cockerels; details: 0.005 % in feed
# Text: ^1 Four replicates, 5 broiler cockerels each
# [38] = Microbiological activity of A-28086-I
compound,measurement,setting,value
CCCC(=O)OC1C=CC2(OC(C(CC)C(=O)C(C)C(O)C(C)C3OC(C(CC)C(=O)O)C(C)CC3C)C(C)CC2C)OC12CCC(C)(C1CCC(O)(CC)C(C)O1)O2 (centres unmarked),"Ratio of Treated to Control, Molar % acetate",[1],0.91
same,"Ratio of Treated to Control, Molar % butyrate",[1],0.81
same,"Ratio of Treated to Control, Total VFA mM/1",[1],1.19
CCCCCC(=O)OC1C=CC2(OC(C(CC)C(=O)C(C)C(O)C(C)C3OC(C(CC)C(=O)O)C(C)CC3C)C(C)CC2C)OC12CCC(C)(C1CCC(O)(CC)C(C)O1)O2 (centres unmarked),"Ratio of Treated to Control, Molar % acetate",[1],0.86
same,"Ratio of Treated to Control, Molar % butyrate",[1],0.97
same,"Ratio of Treated to Control, Total VFA mM/1",[1],0.99
CCC(=O)OC1C=CC2(OC(C(CC)C(=O)C(C)C(O)C(C)C3OC(C(CC)C(=O)O)C(C)CC3C)C(C)CC2C)OC12CCC(C)(C1CCC(O)(CC)C(C)O1)O2 (centres unmarked),"Ratio of Treated to Control, Molar % acetate",[1],0.90
same,"Ratio of Treated to Control, Molar % butyrate",[1],0.68
same,"Ratio of Treated to Control, Total VFA mM/1",[1],1.25
CCCCC(=O)OC1C=CC2(OC(C(CC)C(=O)C(C)C(O)C(C)C3OC(C(CC)C(=O)O)C(C)CC3C)C(C)CC2C)OC12CCC(C)(C1CCC(O)(CC)C(C)O1)O2 (centres unmarked),"Ratio of Treated to Control, Molar % acetate",[1],0.92
same,"Ratio of Treated to Control, Molar % butyrate",[1],0.79
same,"Ratio of Treated to Control, Total VFA mM/1",[1],1.18
CCC(C(=O)O)C1OC(C(C)C(O)C(C)C(=O)C(CC)C2OC3(C=CC(OC(C)=O)C4(CCC(C)(C5CCC(O)(CC)C(C)O5)O4)O3)C(C)CC2C)C(C)CC1C (centres unmarked) [A-28086 factor A acetyl ester derivative],pKa,[2],8.5
same,"Ratio of Treated to Control, Molar % acetate",[1],0.79
same,"Ratio of Treated to Control, Molar % butyrate",[1],0.76
same,"Ratio of Treated to Control, Total VFA mM/1",[1],1.04
CCC(C(=O)O)C1OC(C(C)C(O)C(C)C(=O)C(CC)C2OC3(C=CC(O)C4(CCC(C)(C5CCC(O)(CC)C(C)O5)O4)O3)C(C)CC2C)C(C)CC1C (centres unmarked) [A-28086 factor A],pKa,[2],7.9
same,zone of inhibition at 1000 µg/mL,[3],19 mm
same,antiviral activity,[4],active
same,zone of inhibition at 1000 µg/mL,[5],28 mm
same,solubility in organic solvents,"[6]; methanol, ethanol, dimethylformamide, dimethyl sulfoxide, ethyl acetate, chloroform, acetone, benzene",soluble
same,solubility in nonpolar organic solvents,[6]; such as hexane,only slightly soluble
same,solubility in water,[6]; water,insoluble
same,MIC,[7],6.25 µg/mL
same,zone of inhibition at 1000 µg/mL,[8],14 mm
same,Percent Improvement,[9]; 9 g per ton of feed,12%
same,Percent Improvement,[9]; 18 g per ton of feed,1%
same,LD50,[10],7.15 mg/kg
same,zone of inhibition at 1000 µg/mL,[11],12 mm
same,MIC,[12],12.5 µg/mL
same,MIC,[13],6.25 µg/mL
same,MIC,[14],12.5 µg/mL
same,zone of inhibition at 1000 µg/mL,[15],17 mm
same,zone of inhibition at 1000 µg/mL,[16],12 mm
same,zone of inhibition at 1000 µg/mL,[17],26 mm
same,MIC,[18],6.25 µg/mL
same,MIC,[19],< 0.5 µg/mL
same,MIC,[20],< 0.5 µg/mL
same,MIC,[21],8 µg/mL
same,MIC,[22],16 µg/mL
same,MIC,[23],2 µg/mL
same,MIC,[24],< 0.5 µg/mL
same,MIC,[25],< 0.5 µg/mL
same,MIC,[26],8 µg/mL
same,MIC,[27],8 µg/mL
same,MIC,[28],8 µg/mL
same,MIC,[29],2 µg/mL
same,MIC,[30],16 µg/mL
same,MIC,[31],< 0.5 µg/mL
same,MIC,[32],< 0.5 µg/mL
same,MIC,[33],1 µg/mL
same,MIC,[34],< 0.5 µg/mL
same,MIC,[35],16 µg/mL
same,MIC,[36],4 µg/mL
same,"Ratio of Treated to Control, Molar % acetate",[1],0.94
same,"Ratio of Treated to Control, Molar % butyrate",[1],0.87
same,"Ratio of Treated to Control, Total VFA mM/1",[1],1.26
same,Average Lesion Score,[37],1.2
same,Oocysts Passed Percent Reduction,[37],58%
same,Percent Mortality,[37],0%
same,Percent Weight Gain,[37],88%
CCC(C(=O)OC)C1OC(C(C)C(O)C(C)C(=O)C(CC)C2OC3(C=CC(O)C4(CCC(C)(C5CCC(O)(CC)C(C)O5)O4)O3)C(C)CC2C)C(C)CC1C (centres unmarked) [A-28086-I],microbiological activity,[38],not microbiologically active
